{
  "source": "paper PMC10342804",
  "about": "“Neuroprotective and Disease-Modifying Effects of the Triazinetrione ACD856, a Positive Allosteric Modulator of Trk-Receptors for the Treatment of Cognitive Dysfunction in Alzheimer’s Disease” (International Journal of Molecular Sciences, 2023)",
  "key": {"[1]": {"parameters": "method as in PMID 34440640", "details": "s.c., doses 0.3 mg/kg up to 3 mg/kg; cited from earlier work"}, "[2]": {"system": "C57BL/6J mice", "experiment": "Forced swim test", "assay_type": "in vivo, mouse", "details": "ACD856 1 mg/kg s.c. five days; ketamine single dose 10 mg/kg seven days prior to swimming session", "experimental": "Depression-like behavior was assessed in male C57BL/6J mice using a modified version of the FST, as described previously. This included a two-day protocol test, with pre-exposure to water 24 h prior to the test (day one of FST), which seems to be a more accurate and sensitive technique in detecting depression-like behavior in mice than the standard method of a single exposure (one day test). Animals were individually placed in a vertical glass cylinder (50 cm high, 20 cm in diameter, CMA) filled with tap water up to 35 cm (25 ± 0.5 °C). Two swimming sessions were conducted: a 10 min pre-test (day one) followed 24 h later (day two) by a 6 min test session. The total duration of immobility, as well as latency to the first immobility, were recorded during the 6 min test. After each swimming session, the mice were gently removed and placed in a home cage together with dry napkins. Immobility was defined as floating passively in an upright position in water with only small movements necessary to keep the head above the water’s surface. The floating time was considered an index of depression-like behavior. The glass cylinder was cleaned thoroughly between each animal."}, "[3]": {"system": "primary cortical neurons", "experiment": "Resazurin assay, energy-deprived primary cortical neurons", "assay_type": "cell-based, mouse", "details": "10 ng/mL, no glucose or pyruvate, vs untreated cells", "experimental": "(§1) Metabolic activity was determined by measuring reduction in resazurin (a). […] Data shown are the means of all replicates +/− SEM from at least three different primary cultures. * p-value < 0.05, ** p-value < 0.01, *** p-value < 0.001, **** p-value < 0.0001 compared to control group at one-way ANOVA with Dunnett’s multiple comparisons test.\nCells were seeded at […] in 96-well plates and treated at DIV4–5 in Neurobasal-A media with 2% B27 and 2 mM glutamine (no glucose or pyruvate was present). Two hours after treatment, a 10% volume of resazurin ready-to-use solution was added to the cell culture media, and the plates were returned to the incubator for a further four hours. Resazurin reduction is directly proportional to metabolic function and was evaluated fluorometrically at 540 nm excitation and 580 nm emission wavelengths using a SpectraMax iD5 plate reader. Results were presented as a percentage change compared to the control group."}, "[4]": {"system": "ERK1/2 and Trk-receptors phosphorylation", "experiment": "Western blot of pERK1/2 and phospho-Trk in cortical neurons stimulated with growth factors", "assay_type": "cell-based, mouse", "details": "10 ng/mL factor, 20 min", "experimental": "(§2) Figure 2 Increased activation of TrkB and downstream signaling through ERKK1/2 MAPK phosphorylation by BDNF and ACD856. Levels of phosphorylated TrkB receptors were determined by ELISA in SH-SY5Y cells overexpressing the human TrkB receptor (a). Effect of 0 (open bars), 10 (light grey bars), or 30 ng BDNF/mL (dark grey bars) and time course on BDNF-induced TrkB tyrosine phosphorylation are depicted as the mean of one experiment performed in quadruplicates +/− SEM * p < 0.05. SH-SY5Y-TrkB cells were incubated with 30 ng BDNF/mL for 10 min in the absence (DMSO) or presence of increasing concentrations of ACD856 (b). […] Data shown are the mean value +/− SEM from three independent experiments where each experiment was performed using at least 5 technical repeats. The effect of different neurotrophic factors on the phosphorylation of ERK1/2 and Trk-receptors was investigated (c). Cortical neurons were stimulated with 10 ng/mL of the indicated factors, and the levels of pERK1/2 (upper panel), phospho-Trk (tyrosine 674/675) (mid panel), and beta-actin as a loading control (lower panel) were analyzed by Western blot. Primary cortical neurons were incubated with 300 nM ACD856 for the indicated time periods in the absence of exogenous BDNF (d). The levels of phosphorylated ERK1/2 were determined by immunocytochemistry, and the total count per well of pERK1/2-positive neurites was determined. Fluorescence image at ×10 magnification showing phospho-ERK1/2 detected with immunocytochemistry in cortical neurons (e). * p < 0.05, ** p < 0.01 compared to control group at one-way ANOVA with Dunnett’s multiple comparisons test. Data shown are the mean value of all replicates +/− SEM from three different experiments.\nPhosphorylated ERK 1/2 (pERK1/2) levels were evaluated in mouse primary neurons between DIV10–15. Cells were seeded at (60 × 10^4 cells) in 6-well plates coated with poly-D-Lysine. The activation of the Trk signaling pathway was induced with 10 ng/mL ligand for 20 min. Cells were thereafter immediately lysed on ice, sonicated, and denatured at 95 °C for 10 min on a heating block. Proteins were separated on a Novex Bis-Tris 4–12% gel and transferred to a PVDF membrane using an iBlot instrument (Invitrogen). The membrane was blocked using 5% BSA in TBS-T followed by incubation with anti-phospho-p44/42 MAPK (ERK1/2) rabbit monoclonal antibody (Cell Signaling CS-4370) (dilution 1:1000) in TBS-T with 0.1% BSA for at least 60 min. […] After washing, a Western blot detection reagent (Forte, Millipore) was added, and immunoreactive proteins were detected by luminescence using C-DiGit Blot Scanner and quantified with Image Studio™ Software (version 5.2). […]"}, "[5]": {"system": "primary cortical neurons", "experiment": "Mitochondrial ToxGlo assay (ATP levels, cell membrane integrity), energy-deprived primary neurons", "assay_type": "cell-based, mouse", "details": "for cell membrane integrity: glucose and pyruvate withdrawal; for ATP levels: neurotrophins, 6 h, no glucose or pyruvate", "experimental": "as §1\nMitochondrial ToxGlo assay was used to evaluate the cell membrane integrity and the ATP levels of PCN cells. At DIV4–5, cells seeded at […] in 96-well plates were treated for six and three hours with increasing doses of neurotrophins and ACD856, respectively, in Neurobasal-A media containing 2% B27 and 2 mM glutamine. No glucose or pyruvate was present in the cell media to prevent non-mitochondrial ATP production from glycolysis. Then, bis-AAF-R110, a fluorogenic substrate that is exclusively cleaved by proteases released from membrane-compromised cells, was added, and the plate was incubated at 37 °C for 30 min. Fluorescence was measured at 485 nm (Ex)/530 nm (Em) using a SpectraMax iD5 plate reader. Next, the ATP detection reagent was added, and luminescence was measured after 5 min incubation to assess ATP levels in lysed cells."}, "[6]": {"target": "T1, human TrkB receptor (Homo sapiens, UniProt Q16620)", "T1 construct": "host or cells: SH-SY5Y (human neuroblastoma) stably expressing TrkB", "experiment": "Phospho-TrkB ELISA in SH-SY5Y cells overexpressing TrkB", "assay_type": "cell-based", "details": "10 or 30 ng BDNF/mL, time course", "experimental": "as §2, with “The effect of different neurotrophic factors on the phosphorylation of ERK1/2 and Trk-receptors was investigated (c).” left out, “Primary cortical neurons were incubated with 300 nM ACD856 for the indicated time periods in the absence of exogenous BDNF (d).” left out, “Data shown are the mean value of all replicates +/− SEM from three different experiments.” left out"}},
  "data": [
    {"molecule": "Cc1cc(-n2c(=O)[nH]c(=O)n(C)c2=O)ccc1Oc1ccc(S(=O)(=O)C(F)(F)F)cc1", "note": "[ACD855]", "values": [
      {"measurement": "pro-cognitive effects in cognition models", "setting": "[1]", "result": "potent pro-cognitive effects"}
    ]},
    {"molecule": "CNC1(c2ccccc2Cl)CCCCC1=O", "note": "(stereo not shown) [Ketamine, ketamine]", "values": [
      {"measurement": "prolonged effect on immobility time in forced swim test", "setting": "[2]", "result": "prolonged antidepressive-like effects"}
    ]},
    {"molecule": "BDNF: recombinant human brain-derived neurotrophic factor (PeproTech 450-02)", "values": [
      {"measurement": "metabolic activity (reduction of resazurin)", "setting": "[3]", "result": "significantly higher fluorescence"},
      {"measurement": "phosphorylation of ERK1/2", "setting": "[4]", "result": "the most effective growth factors with respect to inducing phosphorylation of ERK1/2"},
      {"measurement": "phosphorylation of Trk-receptors (pY674/675)", "setting": "[4]", "result": "the only growth factors that induced phosphorylation of Trk-receptors"},
      {"measurement": "cell membrane integrity", "setting": "[5]", "result": "improved cell membrane integrity"},
      {"measurement": "ATP levels", "setting": "[5]", "result": "able to increase ATP levels"}
    ]},
    {"molecule": "NGF: recombinant human nerve growth factor (PeproTech 450-01)", "values": [
      {"measurement": "metabolic activity (reduction of resazurin)", "setting": "[3]", "result": "significantly higher fluorescence"},
      {"measurement": "cell membrane integrity", "setting": "[5]", "result": "improved cell membrane integrity"},
      {"measurement": "ATP levels", "setting": "[5]", "result": "able to increase ATP levels"}
    ]},
    {"molecule": "NT3: neurotrophin-3, binds to TrkC (protein, UniProt P20783 139-257, looked up) Neurotrophin-3: YAEHKSHRGEYSVCDSESLWVTDKSSAIDIRGHQVTVLGEIKTGNSPVKQYFYETRCKEARPVKNGCRGIDDKHWNSQCKTSQTYVRALTSENNKLVGWRWIRIDTSCVCALSRKIGRT", "values": [
      {"measurement": "phosphorylation of ERK1/2", "setting": "[4]", "result": "the most effective growth factors with respect to inducing phosphorylation of ERK1/2"},
      {"measurement": "phosphorylation of Trk-receptors (pY674/675)", "setting": "[4]", "result": "the only growth factors that induced phosphorylation of Trk-receptors"}
    ]},
    {"molecule": "BDNF: recombinant human brain-derived neurotrophic factor (PeproTech 450-02) (protein, UniProt P23560 19-247, looked up) Neurotrophic factor BDNF …: APMKEANIRGQGGLAYPGVRTHGTLESVNGPKAGSRGLTSLADTFEHVIEELLDEDQKVRPNEENNKDADLYTSRVMLSSQVPLEPPLLFLLEEYKNYLDAANMSMRVRRHSDPARRGELSVCDSISEWVTAADKKTAVDMSGGTVTVLEKVPVSKGQLKQYFYETKCNPMGYTKEGCRGIDKRHWNSQCRTTQSYVRALTMDSKKRIGWRFIRIDTSCVCTLTIKRGR", "values": [
      {"measurement": "BDNF-induced TrkB tyrosine phosphorylation", "setting": "[6]", "result": "in a dose- and time-dependent manner, increase TrkB phosphorylation"}
    ]}
  ]
}
